Measurements from patent publication US9649289B1, “Method and composition for treating dysbiosis and related disease states” (BioAvivus, LLT, priority 2016, dated 2017).

Test: Median particle size of salsalate before and after Microfluidics homogenizer passes
Format: physicochemical
Text: Using a Microfluidics® Homogenizer 40, passes with the device take the median particle size of salsalate FIG. 1 from about 40 microns down to about 2.4 microns, as shown in FIG. 2. The resulting salsalate is formulated into unit dose oral dosages, as noted above.

median particle size (after 40 passes with Microfluidics Homogenizer (micronized salsalate of the invention)): about 2.4 microns
median particle size (after 40 passes with Microfluidics Homogenizer (micronized salsalate of the invention), listed as Salsalate): 2.4 microns
median particle size (starting (regular) salsalate, before homogenization): about 40 microns
SMILES: O=C(Oc1ccccc1C(=O)O)c1ccccc1O [salsalate]
